Molecules are shown by their SMILES.

These results are taken from BindingDB's records for PubMed 34236862 (Lodz University of Technology, 2021).

This test in a line: Inhibition of Rac1 GTPase in human MDA-MB-231 cells assessed as inhibition of cell proliferation treated for 72 hrs by MTT assay. For orientation: Tetrazolium assays rely on reduction of a dye to a coloured formazan, in cell work by metabolically active cells.

For `Cc1cc(C)cc(NC(=N)Nc2ccccc2C(F)(F)F)c1`, the IC50 stood at 21 µM.

What is called IC50 is the point on the concentration scale where inhibition reaches its midpoint.
